According to patent publication US9579408B2, “PET/SPECT agents for applications in biomedical imaging” (Washington University, priority 2011, dated 2017):
Like-named read-outs stand apart in the source and are kept apart here.

Key:
[1] = rat, i.v. tail-vein, 60 min post-injection
Protocol: This Example illustrates MicroPET imaging of myocardial perfusion in a rat. In these experiments, ^68Ga-radiopharmaceutical 1B was injected intravenously into a rat tail-vein; MicroPET images were obtained 60 min. (FIG. 6) post-injection.

[2] = test system: MDR1 Pgp (ABCB1); details: mdr1a/1b (-/-) (dKO) mice, n = 3
[3] = rats, n = 3
[4] = NanoSPECT/CT imaging in rat; type: in vivo; details: i.v. tail-vein, 30 min and 250 min post-injection
Protocol: (FIG. 4) and 250 min. (FIG. 5) post-injection. The arrows indicate heart uptake.

[5] = Quantitative biodistribution in wild-type (WT) mice; details: n = 3
Protocol: All bioassays were performed as described in earlier publications.

CC(C)Oc1cccc2c1[O][68Ga-3]1345[O]c6c(cccc6OC(C)C)C=[N+]1CC(C)(C)C[NH+]3CC[NH+]4CC(C)(C)C[N+]5=C2.[I-] (stereo not drawn) [Agent 1B, [ENBDMP-3-isopropoxy-PI-^68Ga]^+]
MicroPET image finding [1]: low level of signal from liver compared to the heart

CC(C)Oc1cccc2c1[O][67Ga+][O]c1c(cccc1OC(C)C)C=NCC(C)(C)CNCCNCC(C)(C)CN=C2.[I-] [Agent 1A, [ENBDMP-3-isopropoxy-PI-^67Ga]^+]
Biodistribution, blood ([2]; 5 min P.I.): 1.54 % ID/g | Biodistribution, blood ([2]; 15 min P.I.): 0.64 % ID/g | Biodistribution, blood ([2]; 60 min P.I.): 0.34 % ID/g | Biodistribution, blood ([2]; 120 min P.I.): 0.19 % ID/g | Biodistribution, brain ([2]; 5 min P.I.): 1.05 % ID/g | Biodistribution, brain ([2]; 15 min P.I.): 0.65 % ID/g | Biodistribution, brain ([2]; 60 min P.I.): 0.99 % ID/g | Biodistribution, brain ([2]; 120 min P.I.): 0.96 % ID/g | Biodistribution, heart ([2]; 5 min P.I.): 17.02 % ID/g | Biodistribution, heart ([2]; 15 min P.I.): 10.59 % ID/g | Biodistribution, heart ([2]; 60 min P.I.): 14.61 % ID/g | Biodistribution, heart ([2]; 120 min P.I.): 20.29 % ID/g | Biodistribution, kidneys ([2]; 5 min P.I.): 86.12 % ID/g | Biodistribution, kidneys ([2]; 15 min P.I.): 84.19 % ID/g | Biodistribution, kidneys ([2]; 60 min P.I.): 95.60 % ID/g | Biodistribution, kidneys ([2]; 120 min P.I.): 115.23 % ID/g | Biodistribution, liver ([2]; 5 min P.I.): 46.34 % ID/g | Biodistribution, liver ([2]; 15 min P.I.): 46.45 % ID/g | Biodistribution, liver ([2]; 60 min P.I.): 42.54 % ID/g | Biodistribution, liver ([2]; 120 min P.I.): 29.82 % ID/g | Biodistribution, blood ([3]; 5 min P.I.): 0.175 % ID/g | Biodistribution, blood ([3]; 15 min P.I.): 0.041 % ID/g | Biodistribution, blood ([3]; 60 min P.I.): 0.028 % ID/g | Biodistribution, blood ([3]; 120 min P.I.): 0.012 % ID/g | Biodistribution, brain ([3]; 5 min P.I.): 0.024 % ID/g | Biodistribution, brain ([3]; 15 min P.I.): 0.015 % ID/g | Biodistribution, brain ([3]; 60 min P.I.): 0.018 % ID/g | Biodistribution, brain ([3]; 120 min P.I.): 0.016 % ID/g | Biodistribution, heart ([3]; 5 min P.I.): 1.443 % ID/g | Biodistribution, heart ([3]; 15 min P.I.): 1.306 % ID/g | Biodistribution, heart ([3]; 60 min P.I.): 1.386 % ID/g | Biodistribution, heart ([3]; 120 min P.I.): 1.516 % ID/g | Biodistribution, kidneys ([3]; 5 min P.I.): 8.142 % ID/g | Biodistribution, kidneys ([3]; 15 min P.I.): 5.168 % ID/g | Biodistribution, kidneys ([3]; 60 min P.I.): 4.201 % ID/g | Biodistribution, kidneys ([3]; 120 min P.I.): 3.543 % ID/g | Biodistribution, liver ([3]; 5 min P.I.): 2.615 % ID/g | Biodistribution, liver ([3]; 15 min P.I.): 0.657 % ID/g | Biodistribution, liver ([3]; 60 min P.I.): 0.328 % ID/g | Biodistribution, liver ([3]; 120 min P.I.): 0.203 % ID/g | Biodistribution, lung ([3]; 5 min P.I.): 0.814 % ID/g | Biodistribution, lung ([3]; 15 min P.I.): 0.626 % ID/g | Biodistribution, lung ([3]; 60 min P.I.): 0.559 % ID/g | Biodistribution, lung ([3]; 120 min P.I.): 0.591 % ID/g | NanoSPECT/CT image finding [4]: heart uptake | Biodistribution, blood ([5]; 5 min P.I.): 1.26 % ID/g | Biodistribution, blood ([5]; 15 min P.I.): 0.29 % ID/g | Biodistribution, blood ([5]; 60 min P.I.): 0.10 % ID/g | Biodistribution, blood ([5]; 120 min P.I.): 0.07 % ID/g | Biodistribution, brain ([5]; 5 min P.I.): 0.14 % ID/g | Biodistribution, brain ([5]; 15 min P.I.): 0.12 % ID/g | Biodistribution, brain ([5]; 60 min P.I.): 0.09 % ID/g | Biodistribution, brain ([5]; 120 min P.I.): 0.06 % ID/g | Biodistribution, heart ([5]; 5 min P.I.): 9.21 % ID/g | Biodistribution, heart ([5]; 15 min P.I.): 8.37 % ID/g | Biodistribution, heart ([5]; 60 min P.I.): 11.98 % ID/g | Biodistribution, heart ([5]; 120 min P.I.): 9.81 % ID/g | Biodistribution, kidneys ([5]; 5 min P.I.): 81.04 % ID/g | Biodistribution, kidneys ([5]; 15 min P.I.): 83.46 % ID/g | Biodistribution, kidneys ([5]; 60 min P.I.): 93.35 % ID/g | Biodistribution, kidneys ([5]; 120 min P.I.): 67.91 % ID/g | Biodistribution, liver ([5]; 5 min P.I.): 44.95 % ID/g | Biodistribution, liver ([5]; 15 min P.I.): 33.80 % ID/g | Biodistribution, liver ([5]; 60 min P.I.): 7.44 % ID/g | Biodistribution, liver ([5]; 120 min P.I.): 2.90 % ID/g
